Data from ChEMBL document CHEMBL4507287, “Data for DCP probe MRL-650” (2021).

Assays:
Conditions in all cases: Compound concentration 1000.0 nM
[1] = biological target: Maternal embryonic leucine zipper kinase (Homo sapiens) (UniProt Q14680)
[2] = tested on: Fibroblast growth factor receptor 3 (Homo sapiens), P22607 [G697C]
[3] = biological target: Testis-specific serine/threonine-protein kinase 1 (Homo sapiens) (UniProt Q9BXA7)
[4] = biological target: Serine/threonine-protein kinase MRCK beta (Homo sapiens) (UniProt Q9Y5S2)
[5] = biological target: Mitogen-activated protein kinase 11 (Homo sapiens) (UniProt Q15759)
[6] = tested on: Phosphatidylinositol 4,5-bisphosphate 3-kinase catalytic subunit alpha isoform (Homo sapiens), P42336 [H1047L]
Phosphatidylinositol 4,5-bisphosphate 3-kinase catalytic subunit alpha isoform (Homo sapiens), P42336 [H1047L], sequence (P42336 whole entry H1047L, canonical isoform): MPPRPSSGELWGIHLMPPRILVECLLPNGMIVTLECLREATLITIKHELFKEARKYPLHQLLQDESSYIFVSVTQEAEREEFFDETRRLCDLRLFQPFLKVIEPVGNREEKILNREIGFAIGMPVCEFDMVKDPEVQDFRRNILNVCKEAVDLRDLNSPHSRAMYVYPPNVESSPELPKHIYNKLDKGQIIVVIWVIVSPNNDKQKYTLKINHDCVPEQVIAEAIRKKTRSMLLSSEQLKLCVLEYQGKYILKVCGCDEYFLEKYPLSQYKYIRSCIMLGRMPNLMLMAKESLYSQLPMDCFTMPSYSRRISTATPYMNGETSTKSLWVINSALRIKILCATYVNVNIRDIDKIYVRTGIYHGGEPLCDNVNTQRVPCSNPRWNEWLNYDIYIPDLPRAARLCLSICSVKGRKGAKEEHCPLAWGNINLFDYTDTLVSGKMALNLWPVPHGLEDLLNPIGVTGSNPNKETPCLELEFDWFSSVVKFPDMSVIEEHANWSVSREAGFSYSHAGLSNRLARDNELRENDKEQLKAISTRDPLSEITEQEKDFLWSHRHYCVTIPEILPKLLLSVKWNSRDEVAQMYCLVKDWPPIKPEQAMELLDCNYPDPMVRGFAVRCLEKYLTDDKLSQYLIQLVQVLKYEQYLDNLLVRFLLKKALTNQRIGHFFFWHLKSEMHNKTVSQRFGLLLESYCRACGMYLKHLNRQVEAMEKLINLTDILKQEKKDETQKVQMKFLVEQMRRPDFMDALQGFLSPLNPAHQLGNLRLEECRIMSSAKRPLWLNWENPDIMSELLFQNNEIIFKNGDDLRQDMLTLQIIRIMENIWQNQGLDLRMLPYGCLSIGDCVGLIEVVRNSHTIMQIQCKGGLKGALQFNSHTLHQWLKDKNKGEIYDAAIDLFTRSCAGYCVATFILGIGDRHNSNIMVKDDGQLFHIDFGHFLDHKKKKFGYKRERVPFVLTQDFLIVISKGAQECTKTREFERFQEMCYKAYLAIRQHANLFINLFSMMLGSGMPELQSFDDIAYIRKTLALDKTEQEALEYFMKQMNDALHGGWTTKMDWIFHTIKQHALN

[7] = biological target: Leucine-rich repeat serine/threonine-protein kinase 2 (Homo sapiens) (UniProt Q5S007)
[8] = biological target: SRSF protein kinase 3 (Homo sapiens) (UniProt Q9UPE1)
SRSF protein kinase 3 (Homo sapiens), sequence (Q9UPE1 whole entry): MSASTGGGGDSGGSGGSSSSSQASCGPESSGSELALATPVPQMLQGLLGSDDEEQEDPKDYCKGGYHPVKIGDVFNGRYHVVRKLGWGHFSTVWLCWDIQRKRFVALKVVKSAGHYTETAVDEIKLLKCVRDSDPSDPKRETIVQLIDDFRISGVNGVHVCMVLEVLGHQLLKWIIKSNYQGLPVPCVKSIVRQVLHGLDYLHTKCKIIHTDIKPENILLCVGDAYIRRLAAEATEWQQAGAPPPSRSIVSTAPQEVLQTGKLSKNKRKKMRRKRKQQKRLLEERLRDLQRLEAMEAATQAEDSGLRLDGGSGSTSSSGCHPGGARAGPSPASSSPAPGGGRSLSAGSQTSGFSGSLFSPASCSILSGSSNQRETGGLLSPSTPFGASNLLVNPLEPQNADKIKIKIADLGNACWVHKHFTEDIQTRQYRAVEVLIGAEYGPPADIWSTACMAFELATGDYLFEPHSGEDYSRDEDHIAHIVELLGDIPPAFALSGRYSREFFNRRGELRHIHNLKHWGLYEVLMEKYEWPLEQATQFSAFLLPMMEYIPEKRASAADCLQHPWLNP

[9] = biological target: Protein kinase C eta type (Homo sapiens) (UniProt P24723)
[10] = biological target: Serine/threonine-protein kinase PAK 6 (Homo sapiens) (UniProt Q9NQU5)
[11] = biological target: cAMP-dependent protein kinase catalytic subunit alpha (Homo sapiens) (UniProt P17612)
[12] = biological target: Beta-adrenergic receptor kinase 1 (Homo sapiens) (UniProt P25098)
[13] = biological target: Ankyrin repeat and protein kinase domain-containing protein 1 (Homo sapiens) (UniProt Q8NFD2)
[14] = biological target: Mitogen-activated protein kinase 15 (Homo sapiens) (UniProt Q8TD08)
Mitogen-activated protein kinase 15 (Homo sapiens), sequence (Q8TD08 whole entry): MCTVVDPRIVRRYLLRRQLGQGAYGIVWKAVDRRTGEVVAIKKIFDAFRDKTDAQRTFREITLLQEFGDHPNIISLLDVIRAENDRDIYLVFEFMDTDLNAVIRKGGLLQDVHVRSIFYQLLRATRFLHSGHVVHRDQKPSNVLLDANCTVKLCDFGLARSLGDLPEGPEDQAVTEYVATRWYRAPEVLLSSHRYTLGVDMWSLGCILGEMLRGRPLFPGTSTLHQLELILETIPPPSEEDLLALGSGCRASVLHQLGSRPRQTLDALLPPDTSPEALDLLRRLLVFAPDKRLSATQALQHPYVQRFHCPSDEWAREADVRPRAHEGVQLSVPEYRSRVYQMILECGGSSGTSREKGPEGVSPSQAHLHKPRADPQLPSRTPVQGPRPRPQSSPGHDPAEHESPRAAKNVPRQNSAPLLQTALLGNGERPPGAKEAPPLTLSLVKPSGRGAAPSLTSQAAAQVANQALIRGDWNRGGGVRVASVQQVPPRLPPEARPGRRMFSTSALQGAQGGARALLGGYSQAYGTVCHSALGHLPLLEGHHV

[15] = biological target: Uncharacterized serine/threonine-protein kinase SBK3 (Homo sapiens) (UniProt P0C264)
[16] = biological target: Vascular endothelial growth factor receptor 1 (Homo sapiens) (UniProt P17948)
[17] = biological target: Glycogen synthase kinase-3 alpha (Homo sapiens) (UniProt P49840)
Glycogen synthase kinase-3 alpha (Homo sapiens), sequence (P49840 2-483 limits assumed): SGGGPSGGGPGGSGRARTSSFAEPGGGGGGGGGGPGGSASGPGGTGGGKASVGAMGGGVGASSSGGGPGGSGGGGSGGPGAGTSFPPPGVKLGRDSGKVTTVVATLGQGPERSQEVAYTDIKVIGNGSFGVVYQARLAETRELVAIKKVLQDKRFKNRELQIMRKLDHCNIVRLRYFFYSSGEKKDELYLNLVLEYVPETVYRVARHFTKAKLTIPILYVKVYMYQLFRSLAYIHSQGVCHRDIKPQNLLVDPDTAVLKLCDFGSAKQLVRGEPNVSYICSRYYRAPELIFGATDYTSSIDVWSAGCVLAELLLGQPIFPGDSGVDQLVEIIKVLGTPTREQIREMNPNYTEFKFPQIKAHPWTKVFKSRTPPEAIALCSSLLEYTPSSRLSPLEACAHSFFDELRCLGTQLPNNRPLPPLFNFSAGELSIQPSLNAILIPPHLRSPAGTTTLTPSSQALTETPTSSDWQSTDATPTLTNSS

[18] = biological target: Tyrosine-protein kinase receptor TYRO3 (Homo sapiens) (UniProt Q06418)
Tyrosine-protein kinase receptor TYRO3 (Homo sapiens), sequence (Q06418 whole entry): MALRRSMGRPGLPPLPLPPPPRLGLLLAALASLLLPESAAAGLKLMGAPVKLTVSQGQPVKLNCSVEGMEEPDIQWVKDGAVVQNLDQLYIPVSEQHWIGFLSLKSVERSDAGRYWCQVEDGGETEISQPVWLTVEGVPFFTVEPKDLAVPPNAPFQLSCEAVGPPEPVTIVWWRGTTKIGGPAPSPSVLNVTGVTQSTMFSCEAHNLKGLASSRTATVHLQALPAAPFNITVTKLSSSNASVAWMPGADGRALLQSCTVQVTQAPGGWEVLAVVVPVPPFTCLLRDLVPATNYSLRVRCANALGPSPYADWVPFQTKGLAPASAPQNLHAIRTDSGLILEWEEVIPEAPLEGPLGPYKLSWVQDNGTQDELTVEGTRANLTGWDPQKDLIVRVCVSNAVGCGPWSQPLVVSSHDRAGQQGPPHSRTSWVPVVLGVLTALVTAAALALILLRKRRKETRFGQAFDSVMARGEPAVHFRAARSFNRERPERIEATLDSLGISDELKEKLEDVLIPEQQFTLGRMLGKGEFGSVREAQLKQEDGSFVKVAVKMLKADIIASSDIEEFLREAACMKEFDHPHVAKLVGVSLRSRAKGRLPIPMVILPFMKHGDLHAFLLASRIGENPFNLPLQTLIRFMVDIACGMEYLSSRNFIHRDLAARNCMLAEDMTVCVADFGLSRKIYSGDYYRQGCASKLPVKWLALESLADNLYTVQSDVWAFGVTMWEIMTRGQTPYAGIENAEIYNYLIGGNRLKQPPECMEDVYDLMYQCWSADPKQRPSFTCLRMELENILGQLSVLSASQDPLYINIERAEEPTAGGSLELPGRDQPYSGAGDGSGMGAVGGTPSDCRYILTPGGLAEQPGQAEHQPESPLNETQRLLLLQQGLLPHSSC

[19] = tested on: Receptor-type tyrosine-protein kinase FLT3 (Homo sapiens), P36888 [UNDEFINED MUTATION]
Receptor-type tyrosine-protein kinase FLT3 (Homo sapiens), P36888 [UNDEFINED MUTATION], sequence (P36888 whole entry, looked up, change not shown): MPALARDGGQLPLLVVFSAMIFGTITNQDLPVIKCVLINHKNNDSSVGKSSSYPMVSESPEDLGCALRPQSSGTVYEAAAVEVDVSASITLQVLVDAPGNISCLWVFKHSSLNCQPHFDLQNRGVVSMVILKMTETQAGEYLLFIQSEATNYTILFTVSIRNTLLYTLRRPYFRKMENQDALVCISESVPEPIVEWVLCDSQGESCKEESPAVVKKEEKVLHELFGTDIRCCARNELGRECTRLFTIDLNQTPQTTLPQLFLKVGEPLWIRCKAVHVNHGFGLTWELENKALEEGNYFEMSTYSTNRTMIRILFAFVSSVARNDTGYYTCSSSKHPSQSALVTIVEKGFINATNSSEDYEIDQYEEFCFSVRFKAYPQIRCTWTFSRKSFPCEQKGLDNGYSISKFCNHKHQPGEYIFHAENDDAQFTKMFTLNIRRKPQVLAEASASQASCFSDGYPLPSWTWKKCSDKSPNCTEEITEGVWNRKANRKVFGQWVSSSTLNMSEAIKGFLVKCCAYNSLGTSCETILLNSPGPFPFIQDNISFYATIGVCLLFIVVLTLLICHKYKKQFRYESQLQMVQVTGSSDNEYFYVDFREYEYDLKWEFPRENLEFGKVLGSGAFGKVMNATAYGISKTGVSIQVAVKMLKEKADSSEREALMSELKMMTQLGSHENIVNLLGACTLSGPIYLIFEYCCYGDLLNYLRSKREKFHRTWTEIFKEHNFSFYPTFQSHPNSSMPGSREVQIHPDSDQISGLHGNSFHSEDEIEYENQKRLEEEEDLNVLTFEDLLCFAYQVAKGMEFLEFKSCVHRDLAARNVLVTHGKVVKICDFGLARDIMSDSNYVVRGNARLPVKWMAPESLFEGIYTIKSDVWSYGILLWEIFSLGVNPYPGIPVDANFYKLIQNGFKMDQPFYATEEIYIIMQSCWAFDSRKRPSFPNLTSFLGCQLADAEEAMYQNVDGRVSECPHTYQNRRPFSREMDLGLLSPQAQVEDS

[20] = biological target: Cyclin-dependent kinase 15 (Homo sapiens) (UniProt Q96Q40)
[21] = biological target: Ephrin type-A receptor 2 (Homo sapiens) (UniProt P29317)
[22] = biological target: Dual specificity mitogen-activated protein kinase kinase 7 (Homo sapiens) (UniProt O14733)
[23] = biological target: Rho-associated protein kinase 1 (Homo sapiens) (UniProt Q13464)
[24] = tested on: Phosphatidylinositol 4,5-bisphosphate 3-kinase catalytic subunit alpha isoform (Homo sapiens), P42336 [E545K]
[25] = biological target: Phosphatidylinositol 4-phosphate 5-kinase type-1 alpha (Homo sapiens) (UniProt Q99755)
[26] = biological target: Serine/threonine-protein kinase 4 (Homo sapiens) (UniProt Q13043)
Serine/threonine-protein kinase 4 (Homo sapiens), sequence (Q13043 whole entry, canonical isoform): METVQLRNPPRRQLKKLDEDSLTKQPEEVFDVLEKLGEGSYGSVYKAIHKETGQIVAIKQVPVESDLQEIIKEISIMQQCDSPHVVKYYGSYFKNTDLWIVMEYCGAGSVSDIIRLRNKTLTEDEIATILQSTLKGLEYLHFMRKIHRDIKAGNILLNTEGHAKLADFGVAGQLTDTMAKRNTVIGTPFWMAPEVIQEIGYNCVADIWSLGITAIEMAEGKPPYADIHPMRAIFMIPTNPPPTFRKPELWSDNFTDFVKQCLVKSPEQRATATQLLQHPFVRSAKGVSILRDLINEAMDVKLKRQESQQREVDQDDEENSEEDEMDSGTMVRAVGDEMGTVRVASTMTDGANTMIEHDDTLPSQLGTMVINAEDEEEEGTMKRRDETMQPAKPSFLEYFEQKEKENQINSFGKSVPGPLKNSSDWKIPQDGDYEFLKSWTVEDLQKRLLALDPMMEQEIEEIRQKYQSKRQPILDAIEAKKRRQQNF

[27] = tested on: Phosphatidylinositol 4,5-bisphosphate 3-kinase catalytic subunit alpha isoform (Homo sapiens), P42336 [E542K]
[28] = biological target: Mitogen-activated protein kinase kinase kinase kinase 2 (Homo sapiens) (UniProt Q12851)
[29] = biological target: Dual specificity mitogen-activated protein kinase kinase 2 (Homo sapiens) (UniProt P36507)
[30] = biological target: Serine/threonine-protein kinase N1 (Homo sapiens) (UniProt Q16512)
[31] = biological target: Casein kinase I isoform delta (Homo sapiens) (UniProt P48730)
[32] = biological target: Atypical kinase COQ8A, mitochondrial (Homo sapiens) (UniProt Q8NI60)
[33] = tested on: Epidermal growth factor receptor (Homo sapiens), P00533 [G719S]
[34] = biological target: Cyclin-dependent kinase 5 (Homo sapiens) (UniProt Q00535)
[35] = biological target: Interleukin-1 receptor-associated kinase 3 (Homo sapiens) (UniProt Q9Y616)
[36] = biological target: Protein kinase C iota type (Homo sapiens) (UniProt P41743)
[37] = biological target: Calcium/calmodulin-dependent protein kinase kinase 2 (Homo sapiens) (UniProt Q96RR4)
[38] = biological target: Calcium/calmodulin-dependent protein kinase type II subunit delta (Homo sapiens) (UniProt Q13557)
[39] = tested on: Tyrosine-protein kinase ABL1 (Homo sapiens), P00519 [Y253F]
[40] = biological target: 5'-AMP-activated protein kinase catalytic subunit alpha-2 (Homo sapiens) (UniProt P54646)
[41] = biological target: Testis-specific serine/threonine-protein kinase 3 (Homo sapiens) (UniProt Q96PN8)
[42] = biological target: Mitotic checkpoint serine/threonine-protein kinase BUB1 (Homo sapiens) (UniProt O43683)
[43] = biological target: Calcium/calmodulin-dependent protein kinase type II subunit alpha (Homo sapiens) (UniProt Q9UQM7)
[44] = biological target: Ribosomal protein S6 kinase alpha-2 (Homo sapiens) (UniProt Q15349)

Measured: residual activity

CC(=O)c1c(NS(C)(=O)=O)c2cc(-c3ccc(Cl)cc3)c(-c3ccc(Cl)cc3Cl)nc2n(C)c1=O [MRL-CB1-NC]
inactive: [1] 100% | [2] 100% | [3] 100% | [4] 81% | [5] 100% | [6] 96% | [7] 65% | [8] 100% | [9] 91% | [10] 100% | [11] 100% | [12] 74% | [13] 70% | [14] 100% | [15] 95% | [16] 100% | [17] 75% | [18] 64% | [19] 98% | [20] 100% | [21] 100% | [22] 100% | [23] 85% | [24] 91% | [25] 97% | [26] 100% | [27] 76% | [28] 82% | [29] 100% | [30] 100% | [31] 100% | [32] 100% | [33] 100% | [34] 100% | [35] 100% | [36] 100% | [37] 100% | [38] 100% | [39] 94% | [40] 85% | [41] 100% | [42] 76% | [43] 100% | [44] 100%

CC(=O)Nc1c(C(C)=O)c(=O)n(C)c2nc(-c3ccc(Cl)cc3Cl)c(-c3ccc(Cl)cc3)cc12 [NAPHTHYRIDINONE]
inactive: [1] 100% | [2] 100% | [3] 100% | [4] 100% | [5] 93% | [6] 95% | [7] 100% | [8] 100% | [9] 100% | [10] 100% | [11] 100% | [12] 84% | [13] 100% | [14] 100% | [15] 100% | [16] 100% | [17] 100% | [18] 68% | [19] 100% | [20] 100% | [21] 100% | [22] 100% | [23] 100% | [24] 79% | [25] 100% | [26] 100% | [27] 94% | [28] 92% | [29] 100% | [30] 92% | [31] 100% | [32] 100% | [33] 100% | [34] 100% | [35] 95% | [36] 100% | [37] 100% | [38] 100% | [39] 96% | [40] 100% | [41] 100% | [42] 92% | [43] 100% | [44] 100%
